The target in one assay is PP6 holoenzyme (Homo sapiens, UniProt O00743). The note with it: 100 uM DiFMUP; pH 7.4, 30 C; Mg2+ from enzyme buffer.
A further assay addresses PP4 holoenzyme (Homo sapiens, UniProt P60510). The conditions noted are these: 100 uM DiFMUP; pH 7.4, 30 C; Mg2+ from enzyme buffer.

Results on 1 molecule are retold here after PMC11844454 (bioRxiv, 2025).

PP6 holoenzyme, sequence (O00743 whole entry): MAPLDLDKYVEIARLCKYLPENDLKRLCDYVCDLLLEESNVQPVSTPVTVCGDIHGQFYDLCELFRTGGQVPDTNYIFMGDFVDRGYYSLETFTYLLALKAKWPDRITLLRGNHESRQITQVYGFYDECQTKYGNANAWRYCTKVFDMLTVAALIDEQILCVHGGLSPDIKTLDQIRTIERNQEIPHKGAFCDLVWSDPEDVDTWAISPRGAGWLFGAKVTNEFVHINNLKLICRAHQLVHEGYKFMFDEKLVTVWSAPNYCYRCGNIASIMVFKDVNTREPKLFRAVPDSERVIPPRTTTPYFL
PP6 holoenzyme, sequence (Q9UPN7 whole entry partner): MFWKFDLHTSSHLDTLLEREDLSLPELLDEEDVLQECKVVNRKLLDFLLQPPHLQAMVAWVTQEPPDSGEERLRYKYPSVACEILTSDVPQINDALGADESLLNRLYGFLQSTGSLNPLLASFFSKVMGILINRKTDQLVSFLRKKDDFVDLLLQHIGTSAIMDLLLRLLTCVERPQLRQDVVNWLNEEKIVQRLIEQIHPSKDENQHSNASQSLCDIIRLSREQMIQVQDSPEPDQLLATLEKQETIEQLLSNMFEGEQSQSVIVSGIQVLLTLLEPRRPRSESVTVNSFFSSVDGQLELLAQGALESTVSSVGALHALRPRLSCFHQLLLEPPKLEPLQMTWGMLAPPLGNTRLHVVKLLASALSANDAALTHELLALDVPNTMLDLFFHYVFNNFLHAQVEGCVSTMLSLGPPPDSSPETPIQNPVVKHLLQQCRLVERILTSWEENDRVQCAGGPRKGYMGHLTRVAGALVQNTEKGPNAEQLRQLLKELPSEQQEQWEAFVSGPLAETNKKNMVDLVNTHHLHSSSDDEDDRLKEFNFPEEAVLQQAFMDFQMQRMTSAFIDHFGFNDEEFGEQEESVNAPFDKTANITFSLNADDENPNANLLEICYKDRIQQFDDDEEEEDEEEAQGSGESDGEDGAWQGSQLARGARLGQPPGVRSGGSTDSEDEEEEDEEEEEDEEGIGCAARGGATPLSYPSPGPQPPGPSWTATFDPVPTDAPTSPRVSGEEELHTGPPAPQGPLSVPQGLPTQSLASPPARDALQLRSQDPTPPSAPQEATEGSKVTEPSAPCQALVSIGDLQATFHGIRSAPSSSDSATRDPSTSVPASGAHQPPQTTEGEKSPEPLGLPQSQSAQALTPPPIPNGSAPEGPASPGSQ
PP6 holoenzyme, sequence (O15084 whole entry partner): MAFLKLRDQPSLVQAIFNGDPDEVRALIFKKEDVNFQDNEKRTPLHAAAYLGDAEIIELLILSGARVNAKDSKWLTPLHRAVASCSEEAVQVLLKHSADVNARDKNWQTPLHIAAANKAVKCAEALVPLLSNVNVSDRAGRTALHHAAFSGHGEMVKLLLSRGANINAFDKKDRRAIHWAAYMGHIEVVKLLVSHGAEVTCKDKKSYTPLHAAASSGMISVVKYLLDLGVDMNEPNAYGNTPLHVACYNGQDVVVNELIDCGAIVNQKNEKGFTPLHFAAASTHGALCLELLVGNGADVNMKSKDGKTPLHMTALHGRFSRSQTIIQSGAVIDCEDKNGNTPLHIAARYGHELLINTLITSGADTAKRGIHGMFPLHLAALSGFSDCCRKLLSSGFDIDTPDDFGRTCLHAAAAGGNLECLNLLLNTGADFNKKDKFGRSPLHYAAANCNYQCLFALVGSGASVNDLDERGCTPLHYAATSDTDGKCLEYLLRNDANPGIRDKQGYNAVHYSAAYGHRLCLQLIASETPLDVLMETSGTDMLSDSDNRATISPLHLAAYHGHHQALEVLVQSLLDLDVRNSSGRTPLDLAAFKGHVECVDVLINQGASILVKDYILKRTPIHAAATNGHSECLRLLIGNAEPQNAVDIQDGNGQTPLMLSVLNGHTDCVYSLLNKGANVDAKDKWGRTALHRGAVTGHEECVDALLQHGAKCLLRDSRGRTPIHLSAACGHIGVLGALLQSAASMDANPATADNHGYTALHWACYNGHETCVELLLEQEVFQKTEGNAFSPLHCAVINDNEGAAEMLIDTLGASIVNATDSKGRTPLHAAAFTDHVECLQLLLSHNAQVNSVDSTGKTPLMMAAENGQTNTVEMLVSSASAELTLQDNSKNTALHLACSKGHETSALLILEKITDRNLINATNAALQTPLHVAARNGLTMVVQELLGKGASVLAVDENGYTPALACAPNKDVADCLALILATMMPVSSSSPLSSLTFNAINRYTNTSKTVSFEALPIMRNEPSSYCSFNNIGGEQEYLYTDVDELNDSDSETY
PP4 holoenzyme, sequence (P60510 2-307): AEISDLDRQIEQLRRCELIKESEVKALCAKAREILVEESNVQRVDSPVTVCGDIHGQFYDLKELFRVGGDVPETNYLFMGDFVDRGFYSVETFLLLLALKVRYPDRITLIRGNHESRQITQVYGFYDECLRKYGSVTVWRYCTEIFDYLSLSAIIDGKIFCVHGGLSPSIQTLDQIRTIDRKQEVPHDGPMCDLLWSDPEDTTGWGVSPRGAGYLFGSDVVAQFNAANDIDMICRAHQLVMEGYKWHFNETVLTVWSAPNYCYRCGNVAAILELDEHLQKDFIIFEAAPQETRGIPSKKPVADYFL
PP4 holoenzyme, sequence (Q9NY27 whole entry partner): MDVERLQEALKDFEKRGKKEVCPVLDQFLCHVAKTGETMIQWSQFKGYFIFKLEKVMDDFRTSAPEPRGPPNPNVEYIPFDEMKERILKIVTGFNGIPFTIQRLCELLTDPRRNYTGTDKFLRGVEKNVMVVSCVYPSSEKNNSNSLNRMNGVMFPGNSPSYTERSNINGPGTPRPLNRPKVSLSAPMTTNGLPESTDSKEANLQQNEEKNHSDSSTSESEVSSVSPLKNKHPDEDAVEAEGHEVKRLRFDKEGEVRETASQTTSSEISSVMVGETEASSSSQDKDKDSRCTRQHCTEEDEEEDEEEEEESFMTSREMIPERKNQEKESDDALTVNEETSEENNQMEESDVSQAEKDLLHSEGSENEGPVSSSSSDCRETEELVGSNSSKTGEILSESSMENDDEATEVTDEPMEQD
PP4 holoenzyme, sequence (Q6IN85 whole entry partner): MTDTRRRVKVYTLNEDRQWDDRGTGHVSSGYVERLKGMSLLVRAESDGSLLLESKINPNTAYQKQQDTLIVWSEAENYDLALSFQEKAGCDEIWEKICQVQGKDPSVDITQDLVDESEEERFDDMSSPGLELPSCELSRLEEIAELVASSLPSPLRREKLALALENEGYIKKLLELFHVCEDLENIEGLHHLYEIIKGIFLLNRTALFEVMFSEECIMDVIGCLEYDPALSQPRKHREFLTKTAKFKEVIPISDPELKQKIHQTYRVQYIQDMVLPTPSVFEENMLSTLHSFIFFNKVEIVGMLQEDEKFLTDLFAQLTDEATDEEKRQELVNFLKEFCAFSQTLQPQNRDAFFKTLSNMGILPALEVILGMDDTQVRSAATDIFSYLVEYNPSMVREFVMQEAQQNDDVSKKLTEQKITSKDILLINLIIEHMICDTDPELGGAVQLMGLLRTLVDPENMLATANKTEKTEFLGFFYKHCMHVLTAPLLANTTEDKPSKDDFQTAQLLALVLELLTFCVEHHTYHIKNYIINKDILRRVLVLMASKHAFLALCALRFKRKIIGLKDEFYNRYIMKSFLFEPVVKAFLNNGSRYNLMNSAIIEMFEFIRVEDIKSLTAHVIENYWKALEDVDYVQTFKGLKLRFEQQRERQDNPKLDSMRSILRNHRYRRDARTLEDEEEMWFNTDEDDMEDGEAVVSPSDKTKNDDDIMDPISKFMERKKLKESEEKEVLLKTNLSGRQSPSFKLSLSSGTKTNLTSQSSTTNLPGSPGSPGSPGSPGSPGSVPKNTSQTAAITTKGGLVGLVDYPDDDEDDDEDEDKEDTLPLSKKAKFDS

In the case of `Cc1cc(=O)oc2c(F)c(OP(=O)(O)O)c(F)cc12` [DiFMUP], the fluorescence dephosphorylation assay entry on PP6 holoenzyme is “DiFMUP dephosphorylation assay measuring the activity of purified PP6 holoenzyme”; at PP4 holoenzyme it was “mixing purified PP4 and PP6 holoenzymes”.
